Experimental data taken from ChEMBL document CHEMBL1141947, “Inhibitors of the serotonin transporter protein (SERT): the design and synthesis of biotinylated derivatives of 3-(1,2,3,6-tetrahydro-pyridin-4-yl)-1H-indoles. High-affinity serotonergic ligands for conjugation with quantum dots” (Bioorg Med Chem Lett, 2005).

What was measured:
[1] = target: T1, Sodium-dependent serotonin transporter (Homo sapiens, UniProt P31645); assay: Inhibitory activity of compound bound to streptavidin-conjugated quantum dots against human SERT transfected in HEK293 cells; format: cell-based
[2] = target: T1, Sodium-dependent serotonin transporter; assay: Inhibitory activity against human SERT transfected in HEK293 cells; format: cell-based

T1 sequence (P31645 whole entry): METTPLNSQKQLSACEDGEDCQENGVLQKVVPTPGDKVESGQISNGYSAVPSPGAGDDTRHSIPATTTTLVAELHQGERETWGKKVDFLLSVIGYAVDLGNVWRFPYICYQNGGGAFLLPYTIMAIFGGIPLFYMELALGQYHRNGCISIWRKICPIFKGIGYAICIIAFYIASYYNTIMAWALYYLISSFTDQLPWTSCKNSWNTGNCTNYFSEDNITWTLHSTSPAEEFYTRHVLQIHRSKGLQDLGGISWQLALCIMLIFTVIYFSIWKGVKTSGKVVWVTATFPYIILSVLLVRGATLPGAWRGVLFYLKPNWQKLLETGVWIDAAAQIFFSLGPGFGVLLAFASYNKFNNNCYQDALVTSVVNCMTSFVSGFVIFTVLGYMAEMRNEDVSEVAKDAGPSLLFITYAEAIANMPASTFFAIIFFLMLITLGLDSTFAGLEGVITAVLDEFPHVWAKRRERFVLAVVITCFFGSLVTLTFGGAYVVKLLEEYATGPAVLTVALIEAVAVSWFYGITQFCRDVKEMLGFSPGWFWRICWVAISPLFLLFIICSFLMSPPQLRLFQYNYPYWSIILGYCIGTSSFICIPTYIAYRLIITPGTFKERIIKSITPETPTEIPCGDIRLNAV

With `NCCc1c[nH]c2ccc(OCCOCCOCCS)cc12` the IC50 [1] was 99 µM and the IC50 [2] was 115 µM.
`O=C(CCCCC1SCC2NC(=O)NC21)NCCN1CC=C(c2c[nH]c3ccccc23)CC1` (centres undefined) was tested, and the IC50 [1] was 0.03 µM and the IC50 [2] was 0.002 µM.
